“Also recorded” adds a separate entry of the source.
Tests used:
[1] = system: Arabidopsis thaliana seed germination; test: Arabidopsis seed germination assay (promotion of germination in the presence of (S)-ABA); type: in vivo
Description: To determine whether the (S)-ABA derivatives of the present invention were effective antagonists, germination assays were performed with the model plant Arabidopsis thaliana. If the compounds are found to be antagonists, they may be useful to counter any undesirable side effects of (S)-ABA.
Arabidopsis seed was sterilized by shaking for five minutes in 200 proof ethanol, followed by shaking for five minutes in a 10% bleach solution. The seeds were then washed five times in sterile, distilled, de-ionized water and suspended in 0.1% phytoagar. The tubes containing the seeds were wrapped in aluminum foil and stratified at 4° C. for two days.
All compounds were tested at a concentration of 30 ppm in the presence or absence of 0.3 ppm (S)-ABA, in 24-well plates. For each compound, a 1000 ppm stock solution was prepared in distilled, deionized water containing 5% DMSO. The stock test solution (15 μL) was added to each well, plus or minus 1.5 μL of 100 ppm (S)-ABA in 5% DMSO. Appropriate amounts of distilled, de-ionized water was added to equalize volumes, and 450 μL of ½×Murashige and Skoog media containing 1.2% Bactoagar was then added to each well (final DMSO concentration was 0.5%). When the media solidified, ten to 15 sterile stratified Arabidopsis seeds were distributed into each well using a repeat pipettor. The plates were sealed with surgical tape and placed in a growth chamber running diurnal cycles of 12 hours of light at 24° C. and 12 hours of darkness at 19° C. The plates were scanned on days 3 through 14, and scored on day 14. The (S)-2′-vinyl-substituted ABA derivatives were scored on ability to promote germination in the presence of (S)-ABA. The results are summarized below in “Table 1: Arabidopsis seed germination promotion activity of 2′-vinyl-(S)-ABA derivatives.”

[2] = system: grapevines, Seedless 'Red Flame' (bud break and shoot development); test: Field study for breaking grape vine dormancy; type: in vivo; conditions: for Percent of Buds Broken / Shoot Length/Spur (total length of all shoots present on spur): 1% solution applied to dormant grape spurs
Description: A small plot field study to test the effect of experimental compounds on release of, or breaking grape vine dormancy was conducted near Thermal, Calif. in January, 2016. The grapevines, Seedless ‘Red Flame’, had been pruned to 2-4 node spurs (shortened canes) prior to treatment. Aqueous treatment solutions were prepared with a test compound, an appropriate buffering agent, and a silicone-based nonionic surfactant at 0.25% (v/v). Each spur was thoroughly wetted with a 1% (w/v) solution, which was applied with a foam brush. Dormancy breaking was assessed periodically by examining bud break (initiation of growth) and subsequent shoot development. […] Both a control treatment (aqueous solution with surfactant) and a positive control treatment (the commercial standard for bud breaking, hydrogen cyanamide) were included in this study for comparison.

SMILES	Rating: Arabidopsis seed germination promotion activity ([1]; 30 ppm compound in the presence of 0.3 ppm (S)-ABA, scored on day 14)	antagonist nature compared to (S)-ABA ([1]; seed germination assay, 30 ppm with 0.3 ppm (S)-ABA)	Percent of Buds Broken ([2]; 31 days post-treatment) [%]	Percent of Buds Broken ([2]; 48 days post-treatment) [%]	Shoot Length/Spur (total length of all shoots present on spur) ([2]; 48 days post-treatment) [cm]	Shoot Length/Spur (total length of all shoots present on spur) ([2]; 48 days post-treatment, listed as compound 23)	effect on bud break / breaking of woody plant dormancy ([2]; application to dormant grape spurs, 1% solution)
CC(=C/C(=O)O)/C=C/[C@@]1(O)C(/C=C/c2ccc(F)c(F)c2)=CC(=O)CC1(C)C [Compound 23]	+++ (Seeds germinated 8 to 10 days earlier than those treated with 0.3 ppm of (S)-ABA alone.)	antagonists of (S)-ABA; also recorded: one of the most potent (S)-ABA antagonist	16.7	76.7	22.2	intermediate between the spurs treated with the control and hydrogen cyanamide	significantly increased bud break
N#CN [Hydrogen cyanamide, hydrogen cyanamide, reference compound]	–	–	21.0	58.8	25.2	–	–

Reference: patent US9447015B1, “(S)-2′-vinyl-abscisic acid derivatives” (Valent BioSciences Corporation, priority 2015, dated 2016)
